Publication PMC12040169 (PLOS Biology, 2025)

Assay: in vitro
Conditions: human, hela cells, % viability

Q: With `COC(=O)c1cccc2c1CCCN2Cc1nnc(C2CCC2)o1` [CBK304072] as the compound, how does the viability at 28.5 h, 10 µM read?
A: 105%

Q: With `Cc1cc(S(=O)(=O)N2CCN(CCO)C(C)C2)sc1Cl` (stereo not shown) [CBK304074] as the compound, how does the viability at 28.5 h, 10 µM read?
A: 91.4%

Q: For `CCCCNc1cc(N2CCN(C(=O)COC)CC2)nc(N)n1` [CBK304078], which viability at 28.5 h, 10 µM is on record?
A: 98.8%

Q: For `Cc1cccc(OCCN2C(=O)CC(Cc3cnn(C)c3)C2=O)c1` (stereo not shown) [CBK304081], which viability at 28.5 h, 10 µM is on record?
A: 99.7%

Q: With `CCc1nc(CC(=O)N2CCOC(c3ccc(F)cc3)C2)cs1` (stereo not shown) [CBK304083] as the compound, how does the viability at 28.5 h, 10 µM read?
A: 87%

Q: With `Cc1nonc1CNC(=O)N1CCOCC(C2CCC2)C1` (stereo not shown) [CBK304086] as the compound, how does the viability at 28.5 h, 10 µM read?
A: 97.4%

Q: Which viability at 28.5 h, 10 µM does the source give for `Cc1cc(C)n(CCCNC(=O)N2CCC(c3nccs3)CC2)n1` [CBK304088] here?
A: 91.9%

Q: For `CCc1ccc2c(c1)C(CCNC(=O)c1c(C)noc1C(F)F)C(=O)N2` (stereo not shown) [CBK304090], which viability at 28.5 h, 10 µM is on record?
A: 95.1%

Q: With `COCCc1noc(CC2CCN(c3cc(C)ncc3C#N)CC2)n1` [CBK304092] as the compound, how does the viability at 28.5 h, 10 µM read?
A: 90.4%

Q: Which viability at 28.5 h, 10 µM does the source give for `Cc1cc(CS(=O)(=O)N2CCOCC2c2cccc(F)c2)no1` (stereo not shown) [CBK304093] here?
A: 95.4%

Q: For `Cc1cc(O)nc(C(C)N2CCOC(C(C)(C)C)C2)n1` (stereo not shown) [CBK304097], which viability at 28.5 h, 10 µM is on record?
A: 104%

Q: Which viability at 28.5 h, 10 µM does the source give for `Cc1nnnn1-c1cc(NC(=O)NCCCc2nc[nH]n2)ccc1F` [CBK304102] here?
A: 87.7%

Q: Which viability at 28.5 h, 10 µM does the source give for `Cc1c(C(=O)N(C)Cc2csc3ccccc23)nnn1C1CCNCC1` [CBK304103] here?
A: 84.6%

Q: With `CC(=O)Nc1ccc(CN(CCO)C2CCc3ccccc32)cc1` (stereo not shown) [CBK304104] as the compound, how does the viability at 28.5 h, 10 µM read?
A: 93.2%

Q: Which viability at 28.5 h, 10 µM does the source give for `CC(N)C1CCCN(S(=O)(=O)c2ccc(OCc3ncnn3C)cc2)C1` (stereo not shown) [CBK304105] here?
A: 114%

Q: Which viability at 28.5 h, 10 µM does the source give for `CN(C)CC1CN(C(=O)Nc2ncc(Cc3ccccc3Cl)s2)CCO1` (stereo not shown) [CBK304107] here?
A: 93.6%

Q: Which viability at 28.5 h, 10 µM does the source give for `CN(CCc1cccnc1)CC(=O)Nc1cccc(Cl)c1` [CBK304108] here?
A: 93.1%

Q: With `Cc1ccc(-n2nnc(C(=O)N3CCCCC3C(=O)O)c2C)cc1` (stereo not shown) [CBK304109] as the compound, how does the viability at 28.5 h, 10 µM read?
A: 87.7%

Q: Which viability at 28.5 h, 10 µM does the source give for `COc1ncccc1-c1csc(C2CN3CCCC3CO2)n1` (stereo not shown) [CBK304110] here?
A: 83.5%

Q: For `CS(=O)(=O)CCS(=O)(=O)N1CCOCC1c1cccc(F)c1` (stereo not shown) [CBK304111], which viability at 28.5 h, 10 µM is on record?
A: 84.2%

Q: Which viability at 28.5 h, 10 µM does the source give for `Cc1ccc(-c2csc(C3CN4CCCC4CO3)n2)s1` (stereo not shown) [CBK304113] here?
A: 121%

Q: Which viability at 28.5 h, 10 µM does the source give for `CC(C)CCn1cc(C(=O)N2CCNCC2c2cccc(Cl)c2)nn1` (stereo not shown) [CBK304115] here?
A: 91.4%

Q: For `COc1ncccc1-c1csc(N2CCOC(C)C2)n1` (stereo not shown) [CBK304118], which viability at 28.5 h, 10 µM is on record?
A: 81.8%

Q: Which viability at 28.5 h, 10 µM does the source give for `Cc1ccc(Cc2cnc(NC(=O)N3CCC(O)C(F)(F)C3)s2)cc1C` (stereo not shown) [CBK304120] here?
A: 94.7%

Q: For `CCCc1nc(CN2CCNC(=O)C2c2ccccc2C(F)(F)F)no1` (stereo not shown) [CBK304123], which viability at 28.5 h, 10 µM is on record?
A: 93.2%

Q: For `Cc1nsc(NCc2ccccc2CN2CCCC2CO)c1C#N` (stereo not shown) [CBK304124], which viability at 28.5 h, 10 µM is on record?
A: 88.8%

Q: For `COc1ccc(Br)cc1C1CCCN1C(=O)Cc1cnccc1C` (stereo not shown) [CBK304130], which viability at 28.5 h, 10 µM is on record?
A: 93.7%

Q: With `CCCC1(C)CCCN(Cc2nnnn2-c2ccc(S(C)(=O)=O)cc2)C1` (stereo not shown) [CBK304133] as the compound, how does the viability at 28.5 h, 10 µM read?
A: 79.8%

Q: With `CS(=O)(=O)c1ccc(-n2nnnc2CNC2(CO)CCCC2)cc1` [CBK304134] as the compound, how does the viability at 28.5 h, 10 µM read?
A: 91.8%

Q: With `CCOc1cc(NC2CCN(C(=O)C3(CC(C)C)CCC3)CC2)ncn1` [CBK304136] as the compound, how does the viability at 28.5 h, 10 µM read?
A: 105%

Q: With `CCOc1cc(NC2CCN(C(=O)C3CCCC3)C2)ncn1` (stereo not shown) [CBK304137] as the compound, how does the viability at 28.5 h, 10 µM read?
A: 106%

Q: For `CN(Cc1nc2c(s1)CCCC2)C(=O)c1ccc2[nH]cnc2c1` [CBK304138], which viability at 28.5 h, 10 µM is on record?
A: 88.4%

Q: With `COc1ccc(C(C)NC2CCN(c3ccccn3)CC2)cc1F` (stereo not shown) [CBK304146] as the compound, how does the viability at 28.5 h, 10 µM read?
A: 86.8%

Q: For `OC(CSc1ncnc2sc3c(c12)CCC3)Cn1cccn1` (stereo not shown) [CBK304149], which viability at 28.5 h, 10 µM is on record?
A: 72.3%

Q: Which viability at 28.5 h, 10 µM does the source give for `CC(=O)Nc1ccc(NC(=O)NCC2CCCO2)c(C(F)(F)F)c1` (stereo not shown) [CBK304150] here?
A: 92.8%

Q: With `COCc1nc(CN2CCNC(=O)C2c2ccccc2C(F)(F)F)no1` (stereo not shown) [CBK304157] as the compound, how does the viability at 28.5 h, 10 µM read?
A: 87.2%

Q: Which viability at 28.5 h, 10 µM does the source give for `Cc1ncn(Cc2nc(-c3ccsc3)no2)c(=O)c1C` [CBK304158] here?
A: 113%

Q: With `Cc1cnn(C2CCN(C(=O)NC(C)C3OCCc4sccc43)C2)c1` (stereo not shown) [CBK304159] as the compound, how does the viability at 28.5 h, 10 µM read?
A: 96.8%

Q: For `COCc1ccsc1C(=O)Nc1ncn(CC(=O)N2CCCCCC2)n1` [CBK304160], which viability at 28.5 h, 10 µM is on record?
A: 94.9%

Q: For `Cc1nc(-c2cccnc2)[nH]c(=O)c1CCC(=O)N1CCNC(C)C1` (stereo not shown) [CBK304163], which viability at 28.5 h, 10 µM is on record?
A: 102%

Q: Which viability at 28.5 h, 10 µM does the source give for `CC1(O)CCN(Cc2nnnn2-c2ccc(S(C)(=O)=O)cc2)CC1` [CBK304166] here?
A: 99.2%

Q: With `CCCCNc1cc(N(C)Cc2cnn(C)c2)nc(N)n1` [CBK304167] as the compound, how does the viability at 28.5 h, 10 µM read?
A: 62.6%

Q: With `Cc1noc(C)c1S(=O)(=O)N1CCOCC1c1cccc(F)c1` (stereo not shown) [CBK304171] as the compound, how does the viability at 28.5 h, 10 µM read?
A: 109%

Q: With `CCOC(=O)C(NC(=O)c1cc[nH]c(=O)c1)c1cccc(C)c1C` (stereo not shown) [CBK304174] as the compound, how does the viability at 28.5 h, 10 µM read?
A: 97.1%

Q: With `COCCc1noc(CC2CCN(c3ccc(Cl)c(C#N)n3)CC2)n1` [CBK304177] as the compound, how does the viability at 28.5 h, 10 µM read?
A: 97.5%

Q: For `COCCc1noc(CC2CCN(c3ncncc3C#N)CC2)n1` [CBK304178], which viability at 28.5 h, 10 µM is on record?
A: 90.5%

Q: With `CCn1c(C)nnc1CN(CC1CCCO1)C1CCCC1` (stereo not shown) [CBK304181] as the compound, how does the viability at 28.5 h, 10 µM read?
A: 96.4%

Q: For `Cc1cnn(C2CCN(C(=O)CC3OCCc4ccccc43)CC2)c1` (stereo not shown) [CBK304186], which viability at 28.5 h, 10 µM is on record?
A: 93.6%

Q: With `Cn1cc(CC2CCN(Cc3ccc(Oc4cnccn4)cc3)C2)cn1` (stereo not shown) [CBK304188] as the compound, how does the viability at 28.5 h, 10 µM read?
A: 108%

Q: Which viability at 28.5 h, 10 µM does the source give for `CCn1c(CN2CCC(c3cc(O)nc(N)n3)C2)nc2c(F)cccc21` (stereo not shown) [CBK304189] here?
A: 87.5%

Q: For `CC(C)C(CNCc1cncnc1)c1ccnn1C` (stereo not shown) [CBK304190], which viability at 28.5 h, 10 µM is on record?
A: 79.9%

Q: With `CCOC(=O)c1cn(CC2CC2)c2cc(F)c(F)cc2c1=O` [CBK304195] as the compound, how does the viability at 28.5 h, 10 µM read?
A: 98.1%

Q: For `NCC1CCCN1C(=O)c1ccc(Oc2cccc(Br)c2)nc1` (stereo not shown) [CBK304200], which viability at 28.5 h, 10 µM is on record?
A: 95.5%

Q: With `c1ccc(Cc2csc(C3CN4CCCC4CO3)n2)cc1` (stereo not shown) [CBK304202] as the compound, how does the viability at 28.5 h, 10 µM read?
A: 90.2%

Q: For `COCCc1noc(CC2CCN(c3nc(C#N)c(Cl)s3)CC2)n1` [CBK304205], which viability at 28.5 h, 10 µM is on record?
A: 102%

Q: With `O=C(c1cnn(-c2cccc(Cl)c2)c1)N1CCOCC1CC(F)F` (stereo not shown) [CBK304207] as the compound, how does the viability at 28.5 h, 10 µM read?
A: 95.5%

Q: Which viability at 28.5 h, 10 µM does the source give for `CCOC(=O)C1CSCCN1C(=O)c1ccc(-c2cnco2)cc1` (stereo not shown) [CBK304208] here?
A: 84.9%

Q: Which viability at 28.5 h, 10 µM does the source give for `CCOC(=O)c1cn(CC#N)c2cc(F)c(F)cc2c1=O` [CBK304211] here?
A: 98.3%

Q: With `Cc1nn(C)c(C(=O)Nc2sc3c(c2C#N)CCC(C)C3)c1Br` (stereo not shown) [CBK304212] as the compound, how does the viability at 28.5 h, 10 µM read?
A: 104%

Q: Which viability at 28.5 h, 10 µM does the source give for `CC1CCCN(CCCNS(=O)(=O)c2ccc(N3CCCC3=O)cc2)C1` (stereo not shown) [CBK304213] here?
A: 90%

Q: Which viability at 28.5 h, 10 µM does the source give for `CCCC(=O)Nc1ccc(C(=O)N2CCN(CC)CC2)cc1` [CBK304218] here?
A: 88.6%

Q: For `Cc1nc2cc(C(=O)N3CCCCC3CN3CCOCC3)ccc2[nH]1` (stereo not shown) [CBK304219], which viability at 28.5 h, 10 µM is on record?
A: 109%

Q: For `CC1CCN(CCCNS(=O)(=O)c2ccc(N3CCCC3=O)cc2)CC1` [CBK304220], which viability at 28.5 h, 10 µM is on record?
A: 95.9%

Q: Which viability at 28.5 h, 10 µM does the source give for `Cc1nn(CC(=O)N2CCN(C)CC2)c(=O)c2ccccc12` [CBK304221] here?
A: 93.3%

Q: For `CCn1cc(C2CN(S(=O)(=O)c3cccc(COC)c3)CCO2)cn1` (stereo not shown) [CBK304222], which viability at 28.5 h, 10 µM is on record?
A: 93.7%

Q: Which viability at 28.5 h, 10 µM does the source give for `CCn1cc(C2CN(S(=O)(=O)c3cc(C)c(OC)c(C)c3)CCO2)cn1` (stereo not shown) [CBK304224] here?
A: 85.8%

Q: For `CCOC(=O)Cc1csc(SC(C)C(=O)N2CCCc3ccccc32)n1` (stereo not shown) [CBK304228], which viability at 28.5 h, 10 µM is on record?
A: 98.9%
